Ends that are not written are not given here.
How the values were obtained:
[1] = test system: rat substantia nigra dopaminergic neurons; test: AAV V1S/SV2 a-syn oligomer rat model; assay type: in vivo
Description: Adult female Sprague-Dawley rats (250-280 g; Envigo) were pair-housed in cages with wood bedding and had access to food and water ad libitum. The animal colony was maintained in a regular 12-h light/dark cycle. All procedures were approved by the University Health Network Animal Care Committee in accordance with guidelines and regulations set by the Canadian Council on Animal Care.
Animals were secured in a stereotactic frame under isoflurane/oxygen anaesthesia and ketoprofen (5 mg/kg) analgesia. The surgical site was shaved and sterilized with iodine/betadine prior to making a 2 cm incision along the midline. The scalp was exposed and a unilateral injection targeting the SN was performed at coordinates AP−5.2 mm, ML−2 mm and DV−7.4 mm with respect to the bregma as a point of reference. For each animal, a total volume of 2 μl of virus was injected at a rate of 0.5 μl/min using a microinjection pump and 10 μl Hamilton syringe with a 26-gauge needle. For A53T groups, 1 μl (low dose) or 1.34 μl (high dose) of AAV1/2-A53T a-syn (5.1×10^12 genomic particles/ml), 0.14 μl of AAV1/2-Pdpep1.3-GFP or scramble1.3-GFP (5.1×10^12 genomic particles/ml) and 0.86 μl or 0.52 μl of sterile PBS was injected; for EV groups, 1 μl (low dose) or 1.34 μl (high dose) of AAV1/2-EV (5.1×10^12 genomic particles/ml) replaced AAV1/2-A53T. For V1S+SV2 groups, 0.58 μl of AAV1/2-V1S (1.1×10^12 genomic particles/ml), 0.58 μl of AAV1/2-SV2 (1.1×10^12 genomic particles/ml), 0.14 μl of AAV1/2-Pdpep1.3-RFP or scramble1.3-RFP (5.1×10^12 genomic particles/ml) and 0.7 μl of sterile PBS was injected; for the YFP groups, 1.16 μl of AAV1/2-YFP (1.1×10^12 genomic particles/ml), 0.14 μl of AAV1/2-Pdpep1.3-RFP or scramble1.3-RFP (5.1×10^12 genomic particles/ml) and 0.7 μl of sterile PBS was injected. At the end of virus injection, the needle remained in place for 5 minutes before gradual removal.
Animals were uthanized by transcardial perfusion with heparinised saline under isoflurane/oxygen anaesthesia. Brains were then removed and the ventral part, including the ventral striatum, was snap frozen in liquid dry ice-cooled isopentane. […]
Immunofluorescence staining for a-syn, tyrosine hydroxylase and LAMP1 was performed by washing free-floating sections with PBS-T (0.2% Triton X-100) three times for 10 min each at room temperature. […] Sections were then mounted onto glass slides and allowed to dry and then fluorescence mounting medium (DAKO) was applied followed by cover slips.
Confocal images of immunofluorescent staining were acquired with a Zeiss LSM880 confocal microscope equipped with 405, 488, 555, and 639 nm laser lines. All images were taken within the linear range at constant gain and pinhole settings at optimal resolution settings determined by the software. […]

[2] = test system: A53T a-syn iPSC-derived dopaminergic neurons; test: Human iPSC-derived dopaminergic neurons with A53T a-syn mutation; assay type: cell-based; details: A53T a-syn iPSC-derived dopaminergic neurons vs isogenic controls
Description: iCell Dopa neurons (A53T a-syn mutant and isogenic control) were purchased from Fujifilm Cellular Dynamics (Madison, WI, USA) and cultured as per manufacturer's instructions. Briefly, cells were plated in complete maintenance medium provided by the manufacturer on poly-L-ornithine/laminin coated plates (ibidi). Cells recovered from thawing for 24 h and then were transduced with AAV-Scramble1.3-RFP or AAV-Pdpep1.3-RFP for 48 h at which time media was completely changed. Cells were fixed using 4% PFA at 7 days post-plating.
After fixation, cells were permeabilized with 0.2% Triton X-100 for 15 min, washed 3 times with PBS and then incubated with blocking solution (1% BSA, 22.52 mg/mL glycine, 0.1% Tween-20 in PBS) for 1 h. […] Following another 3 PBS washes, nuclei were counterstained with DAPI (ThermoFisher) and then coverslips were mounted on slides using fluorescence mounting medium (DAKO) and sealed using clear nail varnish.
Confocal images of primary cortical neurons, dopaminergic neurons, and LAMP1 staining within the SN were processed using Imaris software (Oxford instruments). Z stacks were projected to give a 3D reconstruction of the field of view and mean pixel intensity per GFP^+ cell (or RFP^+ cell for V1S/SV2 experiments) was calculated for a-syn or LAMP1 signal using the software's surfaces module. […]

## DEEIERQLKALG [PDpep1.3]
[1]; 6 weeks post-injection
  surviving dopaminergic neurons in the SN and terminals in the striatum (TH): increase in surviving dopaminergic neurons
  total a-syn positive area in the SN: decrease
[1]; 6 weeks post-injection, vs Scramble1.3
  a-syn oligomer levels measured by YFP positive area in SN and striatum: significant reduction
[1]; rats, V1S/SV2, 6 weeks post-injection, AAV-expressed RFP peptide
  YFP mean fluorescence intensity in SN cells positive for TH and RFP: 0.063±0.0167 RFU
[2]
  LAMP1 levels: returned both a-syn and LAMP1 levels to those of controls
  a-syn levels: returned both a-syn and LAMP1 levels to those of controls

From patent publication US20250051391A1, “PEPTIDE INHIBITORS AND METHODS FOR INHIBITING PROTEIN AGGREGATION IN NEURONS AND NEURODEGENERATIVE DISEASES” (THE GOVERNING COUNCIL OF THE UNIVERSITY OF TORONTO, priority 2021, published 2025)
